Laboratory results published in ChEMBL document CHEMBL2390858, “Design, synthesis and anti-tuberculosis activity of 1-adamantyl-3-heteroaryl ureas with improved in vitro pharmacokinetic properties” (Bioorg Med Chem, 2013).
pIC50: −log10 of the molar value. ≈ marks a conversion by molar mass, not a printed value.

Molecular target: T1, Bifunctional epoxide hydrolase 2 (Homo sapiens, UniProt P34913)
T1 sequence (P34913 whole entry): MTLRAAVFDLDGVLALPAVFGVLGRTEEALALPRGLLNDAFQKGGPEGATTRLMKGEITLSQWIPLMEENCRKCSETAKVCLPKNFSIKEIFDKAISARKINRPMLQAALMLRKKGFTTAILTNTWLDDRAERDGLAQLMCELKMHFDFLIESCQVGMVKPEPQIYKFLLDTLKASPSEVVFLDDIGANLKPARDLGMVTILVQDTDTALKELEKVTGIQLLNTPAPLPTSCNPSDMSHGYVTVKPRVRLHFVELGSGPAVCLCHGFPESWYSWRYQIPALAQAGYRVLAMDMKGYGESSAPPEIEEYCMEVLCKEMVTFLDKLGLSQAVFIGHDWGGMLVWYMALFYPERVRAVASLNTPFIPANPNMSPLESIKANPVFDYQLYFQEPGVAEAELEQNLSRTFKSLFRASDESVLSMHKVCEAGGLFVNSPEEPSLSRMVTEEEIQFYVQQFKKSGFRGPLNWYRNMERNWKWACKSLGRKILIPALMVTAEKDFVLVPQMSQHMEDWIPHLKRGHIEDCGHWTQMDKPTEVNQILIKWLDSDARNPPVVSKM
Experiment: not given
Conditions: not given

Compound | pIC50
CCCn1nc(NC(=O)NC23CC4CC(CC(C4)C2)C3)cc1C | 6.12
Cn1cc(NC(=O)NC23CC4CC(CC(C4)C2)C3)cn1 | 6.31
O=C(Nc1nc2ccccc2s1)NC12CC3CC(CC(C3)C1)C2 | 8.52
Cc1csc(NC(=O)NC2C3CC4CC(C3)CC2C4)n1 (stereo not drawn) | 6.15

Test system: not given
Experiment: not given
Conditions: buffer, 18 h, pH 7.4

Compound | solubility
Cn1cc(NC(=O)NC23CC4CC(CC(C4)C2)C3)cn1 | 41.1 µg/mL (≈ 150 µM)

Test system: Vero
Experiment: cells
Conditions: Chlorocebus sabaeus, 72 h

Compound | IC50
CCCn1nc(NC(=O)NC23CC4CC(CC(C4)C2)C3)cc1C | 26 µg/mL (≈ 82.2 µM)
O=C(Nc1nc2ccccc2s1)NC12CC3CC(CC(C3)C1)C2 | 17 µg/mL (≈ 51.9 µM)
Cc1csc(NC(=O)NC2C3CC4CC(C3)CC2C4)n1 (stereo not drawn) | 60 µg/mL (≈ 206 µM)

Test system: Pseudomonas aeruginosa
Experiment: microbe, parasite or virus in culture
Conditions: not given

Compound | MIC
CCCn1nc(NC(=O)NC23CC4CC(CC(C4)C2)C3)cc1C | > 200 µg/mL
Cn1cc(NC(=O)NC23CC4CC(CC(C4)C2)C3)cn1 | > 200 µg/mL
O=C(Nc1nc2ccccc2s1)NC12CC3CC(CC(C3)C1)C2 | > 200 µg/mL
Cc1csc(NC(=O)NC2C3CC4CC(C3)CC2C4)n1 (stereo not drawn) | > 200 µg/mL

Test system: Proteus vulgaris
Experiment: microbe, parasite or virus in culture
Conditions: not given

Compound | MIC
CCCn1nc(NC(=O)NC23CC4CC(CC(C4)C2)C3)cc1C | > 200 µg/mL
Cn1cc(NC(=O)NC23CC4CC(CC(C4)C2)C3)cn1 | > 200 µg/mL
O=C(Nc1nc2ccccc2s1)NC12CC3CC(CC(C3)C1)C2 | > 200 µg/mL
Cc1csc(NC(=O)NC2C3CC4CC(C3)CC2C4)n1 (stereo not drawn) | > 200 µg/mL

Test system: Proteus mirabilis
Experiment: microbe, parasite or virus in culture
Conditions: not given

Compound | MIC
CCCn1nc(NC(=O)NC23CC4CC(CC(C4)C2)C3)cc1C | > 200 µg/mL
Cn1cc(NC(=O)NC23CC4CC(CC(C4)C2)C3)cn1 | > 200 µg/mL
O=C(Nc1nc2ccccc2s1)NC12CC3CC(CC(C3)C1)C2 | > 200 µg/mL
Cc1csc(NC(=O)NC2C3CC4CC(C3)CC2C4)n1 (stereo not drawn) | > 200 µg/mL

Test system: Klebsiella pneumoniae
Experiment: microbe, parasite or virus in culture
Conditions: not given

Compound | MIC
CCCn1nc(NC(=O)NC23CC4CC(CC(C4)C2)C3)cc1C | > 200 µg/mL
Cn1cc(NC(=O)NC23CC4CC(CC(C4)C2)C3)cn1 | > 200 µg/mL
O=C(Nc1nc2ccccc2s1)NC12CC3CC(CC(C3)C1)C2 | > 200 µg/mL
Cc1csc(NC(=O)NC2C3CC4CC(C3)CC2C4)n1 (stereo not drawn) | > 200 µg/mL

Test system: Escherichia coli
Experiment: microbe, parasite or virus in culture
Conditions: K-12

Compound | MIC
CCCn1nc(NC(=O)NC23CC4CC(CC(C4)C2)C3)cc1C | > 200 µg/mL
Cn1cc(NC(=O)NC23CC4CC(CC(C4)C2)C3)cn1 | > 200 µg/mL
O=C(Nc1nc2ccccc2s1)NC12CC3CC(CC(C3)C1)C2 | > 200 µg/mL
Cc1csc(NC(=O)NC2C3CC4CC(C3)CC2C4)n1 (stereo not drawn) | > 200 µg/mL

Test system: Burkholderia cepacia
Experiment: microbe, parasite or virus in culture
Conditions: not given

Compound | MIC
CCCn1nc(NC(=O)NC23CC4CC(CC(C4)C2)C3)cc1C | > 200 µg/mL
Cn1cc(NC(=O)NC23CC4CC(CC(C4)C2)C3)cn1 | > 200 µg/mL
O=C(Nc1nc2ccccc2s1)NC12CC3CC(CC(C3)C1)C2 | > 200 µg/mL
Cc1csc(NC(=O)NC2C3CC4CC(C3)CC2C4)n1 (stereo not drawn) | > 200 µg/mL

Test system: Bacillus subtilis
Experiment: microbe, parasite or virus in culture
Conditions: not given

Compound | MIC
CCCn1nc(NC(=O)NC23CC4CC(CC(C4)C2)C3)cc1C | > 200 µg/mL
Cn1cc(NC(=O)NC23CC4CC(CC(C4)C2)C3)cn1 | > 200 µg/mL
O=C(Nc1nc2ccccc2s1)NC12CC3CC(CC(C3)C1)C2 | 200 µg/mL (≈ 611 µM)
Cc1csc(NC(=O)NC2C3CC4CC(C3)CC2C4)n1 (stereo not drawn) | > 200 µg/mL

Test system: Acinetobacter
Experiment: microbe, parasite or virus in culture
Conditions: not given

Compound | MIC
CCCn1nc(NC(=O)NC23CC4CC(CC(C4)C2)C3)cc1C | > 200 µg/mL
Cn1cc(NC(=O)NC23CC4CC(CC(C4)C2)C3)cn1 | > 200 µg/mL
O=C(Nc1nc2ccccc2s1)NC12CC3CC(CC(C3)C1)C2 | > 200 µg/mL
Cc1csc(NC(=O)NC2C3CC4CC(C3)CC2C4)n1 (stereo not drawn) | > 200 µg/mL

Test system: Streptococcus pneumoniae
Experiment: microbe, parasite or virus in culture
Conditions: not given

Compound | MIC
CCCn1nc(NC(=O)NC23CC4CC(CC(C4)C2)C3)cc1C | > 200 µg/mL
Cn1cc(NC(=O)NC23CC4CC(CC(C4)C2)C3)cn1 | > 200 µg/mL
O=C(Nc1nc2ccccc2s1)NC12CC3CC(CC(C3)C1)C2 | > 200 µg/mL
Cc1csc(NC(=O)NC2C3CC4CC(C3)CC2C4)n1 (stereo not drawn) | 100 µg/mL (≈ 343 µM)

Test system: Streptococcus pyogenes
Experiment: microbe, parasite or virus in culture
Conditions: not given

Compound | MIC
CCCn1nc(NC(=O)NC23CC4CC(CC(C4)C2)C3)cc1C | > 200 µg/mL
Cn1cc(NC(=O)NC23CC4CC(CC(C4)C2)C3)cn1 | > 200 µg/mL
O=C(Nc1nc2ccccc2s1)NC12CC3CC(CC(C3)C1)C2 | > 200 µg/mL
Cc1csc(NC(=O)NC2C3CC4CC(C3)CC2C4)n1 (stereo not drawn) | 200 µg/mL (≈ 686 µM)

Test system: Staphylococcus aureus
Experiment: microbe, parasite or virus in culture
Conditions: NRS70

Compound | MIC
CCCn1nc(NC(=O)NC23CC4CC(CC(C4)C2)C3)cc1C | > 200 µg/mL
Cn1cc(NC(=O)NC23CC4CC(CC(C4)C2)C3)cn1 | > 200 µg/mL
O=C(Nc1nc2ccccc2s1)NC12CC3CC(CC(C3)C1)C2 | > 200 µg/mL
Cc1csc(NC(=O)NC2C3CC4CC(C3)CC2C4)n1 (stereo not drawn) | 100 µg/mL (≈ 343 µM)

Test system: Staphylococcus aureus
Experiment: microbe, parasite or virus in culture
Conditions: ATCC 29213

Compound | MIC
CCCn1nc(NC(=O)NC23CC4CC(CC(C4)C2)C3)cc1C | > 200 µg/mL
Cn1cc(NC(=O)NC23CC4CC(CC(C4)C2)C3)cn1 | > 200 µg/mL
O=C(Nc1nc2ccccc2s1)NC12CC3CC(CC(C3)C1)C2 | > 200 µg/mL
Cc1csc(NC(=O)NC2C3CC4CC(C3)CC2C4)n1 (stereo not drawn) | 200 µg/mL (≈ 686 µM)

Test system: Enterococcus faecalis
Experiment: microbe, parasite or virus in culture
Conditions: not given

Compound | MIC
CCCn1nc(NC(=O)NC23CC4CC(CC(C4)C2)C3)cc1C | > 200 µg/mL
Cn1cc(NC(=O)NC23CC4CC(CC(C4)C2)C3)cn1 | > 200 µg/mL
O=C(Nc1nc2ccccc2s1)NC12CC3CC(CC(C3)C1)C2 | > 200 µg/mL
Cc1csc(NC(=O)NC2C3CC4CC(C3)CC2C4)n1 (stereo not drawn) | > 200 µg/mL

Test system: Bacillus anthracis
Experiment: microbe, parasite or virus in culture
Conditions: Sterne

Compound | MIC
CCCn1nc(NC(=O)NC23CC4CC(CC(C4)C2)C3)cc1C | > 200 µg/mL
Cn1cc(NC(=O)NC23CC4CC(CC(C4)C2)C3)cn1 | > 200 µg/mL
O=C(Nc1nc2ccccc2s1)NC12CC3CC(CC(C3)C1)C2 | 200 µg/mL (≈ 611 µM)
Cc1csc(NC(=O)NC2C3CC4CC(C3)CC2C4)n1 (stereo not drawn) | > 200 µg/mL

Test system: Mycobacterium tuberculosis
Experiment: microbe, parasite or virus in culture
Conditions: H37Rv, 168 h

Compound | MIC
CCCn1nc(NC(=O)NC23CC4CC(CC(C4)C2)C3)cc1C | 1.56 µg/mL (≈ 4.93 µM)
Cn1cc(NC(=O)NC23CC4CC(CC(C4)C2)C3)cn1 | 50 µg/mL (≈ 182 µM)
O=C(Nc1nc2ccccc2s1)NC12CC3CC(CC(C3)C1)C2 | 0.78 µg/mL (≈ 2.38 µM)
Cc1csc(NC(=O)NC2C3CC4CC(C3)CC2C4)n1 (stereo not drawn) | 1.56 µg/mL (≈ 5.35 µM)
